Measured values as given in US10399966B2, “Compounds for treatment of trypanosomes and neurological pathogens and uses thereof” (The University of North Carolina at Chapel Hill, priority 2016, dated 2019).
Read-outs that look alike come from different tables or passages of the source.

Experiment: Rat pharmacokinetics, intravenous administration
Format: in vivo
Set-up: AUC(0-inf): unit not given here
Conditions: 5 mg/kg; for AUC(0-inf) / Cmax / half-life / clearance / Vd: rat, iv; for Cmax / half-life / clearance / Vd: plasma
Protocol: The pharmacokinetics of compound 1 was tested in rats after intravenous and oral administration. Two rats were administered 5 mg/kg compound 1 intravenously in a vehicle consisting of 7% Tween 80, 3% EtOH, 5% DMSO in saline. Two rats were administered 20 mg/kg compound 1 orally in a vehicle consisting of 5% DMSO, 0.5% Tween 80, 1% methylcellulose in water. The results are shown in Table 4 and FIGS. 3A-3B and 4A-4B.

**Q.** With `O=C(Nc1ccc2sc(-c3ccc(F)c(F)c3)nc2c1)N1CC[C@H](F)C1` [Compound 1, (S)-2-(3,4-Difluorophenyl)-5-(3-fluoro-N-pyrrolidylamido)benzothiazole] as the molecule, how does the Tmax (Mean ± SEM (n = 2)) read?
**A.** The Tmax was 5 min.

**Q.** What about the Tmax (Rat 2) of the same molecule?
**A.** Its Tmax is 5 min.

**Q.** And the Tmax (in vivo, Rat 1, read-out: Tmax (converted))?
**A.** The Tmax was 5 min.

**Q.** And the AUC(0-inf) (in vivo, Mean ± SEM (n = 2))?
**A.** Its AUC(0-inf) is 1440.

**Q.** What about the AUC(0-inf) (in vivo, Rat 1) of the same molecule?
**A.** Its AUC(0-inf) is 1380.

**Q.** What about the AUC(0-inf) (in vivo, Rat 2) of the same molecule?
**A.** Its AUC(0-inf) is 1500.

**Q.** And the Cmax (Mean ± SEM (n = 2))?
**A.** Its Cmax is 11.7 µM.

**Q.** What about the half-life (Mean ± SEM (n = 2), read-out: Apparent T1/2 (min) for steady state) of the same molecule?
**A.** Its half-life is 96.7 min.

**Q.** And the half-life (Mean ± SEM (n = 2), read-out: Apparent T1/2 (min) for terminal phase)?
**A.** Its half-life is 96.7 min.

**Q.** What about the clearance (Mean ± SEM (n = 2), read-out: Plasma CL) of the same molecule?
**A.** Its clearance is 9.35 mL/min/kg.

**Q.** What about the Vd (Mean ± SEM (n = 2), read-out: Plasma Vz) of the same molecule?
**A.** Its Vd is 0.76 L/kg.

**Q.** What about the Vd (Mean ± SEM, read-out: Plasma Vss) of the same molecule?
**A.** The Vd was 1.31 L/kg.

**Q.** What about the Cmax (Rat 1) of the same molecule?
**A.** The Cmax was 12.1 µM.

**Q.** And the half-life (Rat 1, read-out: Apparent T1/2 (min) for steady state)?
**A.** The half-life was 88.5 min.

**Q.** And the half-life (Rat 1, read-out: Apparent T1/2 (min) for terminal phase)?
**A.** Its half-life is 88.5 min.

**Q.** What about the clearance (Rat 1, read-out: Plasma CL) of the same molecule?
**A.** The clearance was 10.3 mL/min/kg.

**Q.** And the Vd (Rat 1, read-out: Plasma Vss)?
**A.** Its Vd is 1.32 L/kg.

**Q.** What about the Vd (Rat 1, read-out: Plasma Vz) of the same molecule?
**A.** Its Vd is 0.882 L/kg.

**Q.** And the Cmax (Rat 2)?
**A.** The Cmax was 11.3 µM.

**Q.** And the half-life (Rat 2, read-out: Apparent T1/2 (min) for steady state)?
**A.** The half-life was 105 min.

**Q.** And the half-life (Rat 2, read-out: Apparent T1/2 (min) for terminal phase)?
**A.** The half-life was 105 min.

**Q.** What about the clearance (Rat 2, read-out: Plasma CL) of the same molecule?
**A.** Its clearance is 8.38 mL/min/kg.

**Q.** What about the Vd (Rat 2, read-out: Plasma Vss) of the same molecule?
**A.** Its Vd is 1.3 L/kg.

**Q.** What about the Vd (Rat 2, read-out: Plasma Vz) of the same molecule?
**A.** The Vd was 0.639 L/kg.
